The source of these data is ChEMBL document CHEMBL3616474, “Synthesis of arabinose glycosyl sulfamides as potential inhibitors of mycobacterial cell wall biosynthesis” (2015).

Values after ≈ are worked out from the molar mass of the structure shown.

The test relates to Mycolicibacterium smegmatis. Description: Antimicrobial activity against Mycobacterium smegmatis incubated for 18 hrs by Alamar blue assay. The test is classed as functional.
The molecule `CCCCCCCCCCNS(N)(=O)=O` showed an MIC90 of 500 µg/mL (≈ 2120 µM). Molecule `CCCCCCNS(=O)(=O)N[C@H]1OC[C@@H](O)[C@@H](O)[C@@H]1O` registered an MIC90 greater than 1000 µg/mL. The result for `CCCCCCCCNS(=O)(=O)N[C@H]1OC[C@@H](O)[C@@H](O)[C@@H]1O` reads 500 µg/mL (≈ 1470 µM). The result for `CCCCCCCCCCNS(=O)(=O)N[C@H]1OC[C@@H](O)[C@@H](O)[C@@H]1O` reads 62 µg/mL (≈ 168 µM); that for `CCCCCCCCCCCCNS(=O)(=O)N[C@H]1OC[C@@H](O)[C@@H](O)[C@@H]1O`, 250 µg/mL (≈ 630 µM); that for `CCCCCCCCCCCCCCNS(=O)(=O)N[C@H]1OC[C@@H](O)[C@@H](O)[C@@H]1O`, greater than 1000 µg/mL. `CCCCCCN(CCCCCC)S(=O)(=O)N[C@H]1OC[C@@H](O)[C@@H](O)[C@@H]1O`: the MIC90 came to 125 µg/mL (≈ 315 µM). Under `CCCCCCCCN(CCCCCCCC)S(=O)(=O)N[C@H]1OC[C@@H](O)[C@@H](O)[C@@H]1O` stands 500 µg/mL (≈ 1100 µM). Under `CCCCCCCCCCN(CCCCCCCCCC)S(=O)(=O)N[C@H]1OC[C@@H](O)[C@@H](O)[C@@H]1O` stands greater than 1000 µg/mL. As for `CCCCCCCCCCCCN(CCCCCCCCCCCC)S(=O)(=O)N[C@H]1OC[C@@H](O)[C@@H](O)[C@@H]1O`, the MIC90 was greater than 1000 µg/mL.

The molecule `CC(C)CCCC(C)CCNS(=O)(=O)N[C@H]1OC[C@@H](O)[C@@H](O)[C@@H]1O` (stereo not given in full) showed an MIC90 of 125 µg/mL (≈ 339 µM). `O=S(=O)(NCCOCCO)N[C@H]1OC[C@@H](O)[C@@H](O)[C@@H]1O` yielded an MIC90 greater than 1000 µg/mL.

With `O=S(=O)(NCCOCCOCCO)N[C@H]1OC[C@@H](O)[C@@H](O)[C@@H]1O`, the MIC90 was greater than 1000 µg/mL. Under `O=S(=O)(NCCOCCOCCOCCO)N[C@H]1OC[C@@H](O)[C@@H](O)[C@@H]1O` stands greater than 1000 µg/mL; under `NNC(=O)c1ccncc1` [ISONIAZID], 4 µg/mL (≈ 29.2 µM).
